In patent US20190233884A1 (University of Southern California, priority 2016, published 2019):

Tested on: patients with refractory metastatic colorectal cancer (mCRC)
Test: PFS, OS and disease control in the training (evaluation) cohort of refractory mCRC patients receiving TAS-102 (n=52, Japan), by baseline characteristics, SNP genotype and toxicity
Type: in vivo, human
Details: evaluation cohort; for HR OS (95% CI) / HR PFS (95% CI): XRCC3 rs861539 G/A vs G/G (Ref.)
Description: All patients underwent the treatment in salvage-line setting. […]
(§1) Genomic DNA was extracted from peripheral whole blood in patients of all cohorts using the QIAmp Kit (Qiagen, Valencia, Calif., USA) according to the manufacturer's protocol (www.qiagen.com). The candidate SNPs were genotyped using PCR-based direct DNA sequence analysis by ABI 3100A Capillary Genetic Analyzer and Sequencing Scanner v1.0 (Applied Biosystems). Amplification of extracted DNA was carried out using both forward and reverse primers for each gene polymorphism as shown in Table 1. […] The investigators analyzing SNPs were blinded to the clinical data of the study patients.
The primary endpoint in this study was progression-free survival (PFS), and the secondary endpoints were overall survival (OS) and disease control rate (DCR). PFS was calculated from the date of starting treatment to the first observation of disease progression or death from any cause. If a patient had no disease progression or death, PFS was censored at the date of last follow up. OS was calculated from the date of starting treatment until the date of death from any cause or the date of the last follow-up, at which point OS was censored. The disease control rate (DCR) was defined as the proportion of patients who achieved a stable disease (SD) or […] according to RECISTv1.1. Chi-square test was used to examine the difference in baseline patient characteristics among the three cohorts. Allelic distribution of all SNPs by ethnicity for deviation from Hardy-Weinberg equilibrium and the allelic frequencies of SNPs were tested using the Chi-square tests with one degree of freedom. The associations between candidate SNPs and disease control, and toxicities were examined using contingency tables and Fisher's exact test. The associations of SNPs with PFS and OS were analysed using Kaplan-Meier curves and the log-rank test. Because the true mode of inheritance of candidate SNPs was not established yet, a codominant or dominant genetic model if appropriate was considered.
All patients underwent the treatment in salvage-line setting. […] In all patients, adverse events were graded according to the Common Terminology Criteria for Adverse Events, version 4.0. […]
as §1, with “tested” for “genotyped”, “Biosystems).” for “Biosystems). Amplification of extracted DNA was carried out using both forward and reverse primers for each gene polymorphism as shown in Table 1.”, “data.” for “data of the study patients.”
The primary endpoint in this study was progression-free survival (PFS), and the secondary endpoints were overall survival (OS) and disease control rate (DCR).

[1] = Adjuvant history No vs Yes, univariate
[2] = Histology Mod-por vs well, univariate
[3] = KRAS Mutant vs Wild type, univariate
[4] = LN metastasis No vs Yes, univariate
[5] = Liver metastasis No vs Yes, univariate
[6] = Lung metastasis No vs Yes, univariate
[7] = Number of metastases >2 vs ≤2, univariate

Trifluridine/tipiracil [TAS-102] was tested, and the “PD, patients n (%)” value (Pin1 rs2233679 T/T) was 4 (57%), the “Disease Control Rate SD, patients n (%)” value (RAD51 rs1801320 G/C) was 3 (43%) and the “PD, patients n (%)” value (RAD51 rs1801320 G/C) was 4 (57%). For the same substance, the “Disease Control Rate SD, patients n (%)” value (RAD51 rs1801320 G/G) was 12 (31%), the “PD, patients n (%)” value (RAD51 rs1801320 G/G) was 27 (69%) and the “Disease Control CR/PR/SD, patients n (%)” value (XRCC3 rs861539 G/A) was 7 (44%). The “Median PFS (95% CI)” value (XRCC3 rs861539 G/A) was 3.8 (1.6, 6.6) months, the OS (XRCC3 rs861539 G/A) was 15.6 months and the “PD, patients n (%)” value (XRCC3 rs861539 G/A) was 9 (56%). For the same substance, the “HR OS (95% CI)” value (multivariable) was 0.31 (0.09, 1.03), the “HR PFS (95% CI)” value (multivariable) was 0.52 (0.24, 1.11) and the “HR OS (95% CI)” value (univariate) was 0.25 (0.08, 0.79). For the same substance, the “HR PFS (95% CI)” value (univariate) was 0.44 (0.21, 0.92), the “Disease Control CR/PR/SD, patients n (%)” value (XRCC3 rs861539 G/G) was 8 (27%) and the “Median OS (95% CI)” value (XRCC3 rs861539 G/G) was 6.3 (4.9, 12.4+) months. For the same substance, the “Median PFS (95% CI)” value (XRCC3 rs861539 G/G) was 2.3 (1.9, 3.3) months, the OS (XRCC3 rs861539 G/G) was 6.3 months and the “PD, patients n (%)” value (XRCC3 rs861539 G/G) was 22 (73%). For the same substance, the “Disease Control Rate SD, patients n (%)” value (p21 rs1059234 Any C) was 10 (29%), the “PD, patients n (%)” value (p21 rs1059234 Any C) was 25 (71%) and the “Disease Control Rate SD, patients n (%)” value (p21 rs1059234 C/C) was 4 (31%). The “PD, patients n (%)” value (p21 rs1059234 C/C) was 9 (69%), the “Disease Control Rate SD, patients n (%)” value (p21 rs1059234 T/C) was 6 (27%) and the “PD, patients n (%)” value (p21 rs1059234 T/C) was 16 (73%). For the same substance, the “Disease Control Rate SD, patients n (%)” value (p21 rs1059234 T/T) was 5 (45%), the “PD, patients n (%)” value (p21 rs1059234 T/T) was 6 (55%) and the “Disease Control Rate SD, patients n (%)” value (p21 rs1801270 A/A) was 4 (31%). The “PD, patients n (%)” value (p21 rs1801270 A/A) was 9 (69%), the “Disease Control Rate SD, patients n (%)” value (p21 rs1801270 A/C) was 6 (29%) and the “PD, patients n (%)” value (p21 rs1801270 A/C) was 15 (71%). The “Disease Control Rate SD, patients n (%)” value (p21 rs1801270 Any C) was 11 (33%), the “PD, patients n (%)” value (p21 rs1801270 Any C) was 22 (67%) and the “Disease Control Rate SD, patients n (%)” value (p21 rs1801270 C/C) was 5 (42%). The “PD, patients n (%)” value (p21 rs1801270 C/C) was 7 (58%), the “Disease Control Rate SD, patients n (%)” value (p53 rs1042522 Any G) was 9 (35%) and the “PD, patients n (%)” value (p53 rs1042522 Any G) was 17 (65%). For the same substance, the “Disease Control Rate SD, patients n (%)” value (p53 rs1042522 C/C) was 6 (30%), the “PD, patients n (%)” value (p53 rs1042522 C/C) was 14 (70%) and the “Disease Control Rate SD, patients n (%)” value (p53 rs1042522 G/G) was 2 (33%). For the same substance, the “PD, patients n (%)” value (p53 rs1042522 G/G) was 4 (67%), the “HR for OS” value (ATM rs609429, multivariable adjusted for liver metastases and adjuvant history) was 0.24 and the “HR for OS” value (ATM rs609429 any G vs C/C, univariate) was 0.37. For the same substance, the “Overall Survival Median, months” value (Adjuvant history No) was 6.3 months, the “Progression-Free Survival Median, months” value (Adjuvant history No) was 2.1 months and the “Overall Survival HR” value [1] was 2.44. The “Progression-Free Survival HR” value [1] was 1.90, the “Overall Survival Median, months” value (Adjuvant history Yes) was 8.7 months and the “Progression-Free Survival Median, months” value (Adjuvant history Yes) was 3.7 months. The “Overall Survival Median, months” value (Age <61) was 8.1 months, the “Progression-Free Survival Median, months” value (Age <61) was 2.2 months and the “Overall Survival Median, months” value (Age ≥61) was 6.3 months. For the same substance, the “Progression-Free Survival Median, months” value (Age ≥61) was 3.0 months, the “Overall Survival HR” value (Age ≥61 vs <61, univariate) was 1.30 and the “Progression-Free Survival HR” value (Age ≥61 vs <61, univariate) was 0.81. The PFS (CHEK2 rs2267130 any C allele) was 3.4 months, the “HR for PFS” value (CHEK2 rs2267130 any C vs T/T, univariate) was 0.48 and the “Overall Survival Median, months” value (Histology Mod-por) was 8.7 months. The “Progression-Free Survival Median, months” value (Histology Mod-por) was 3.0 months, the “Overall Survival HR” value [2] was 0.52 and the “Progression-Free Survival HR” value [2] was 0.94. The “Overall Survival Median, months” value (Histology well) was 6.3 months, the “Progression-Free Survival Median, months” value (Histology well) was 2.1 months and the “Overall Survival Median, months” value (KRAS Mutant) was 8.3 months. The “Progression-Free Survival Median, months” value (KRAS Mutant) was 3.3 months, the “Overall Survival HR” value [3] was 0.42 and the “Progression-Free Survival HR” value [3] was 0.51. For the same substance, the “Overall Survival Median, months” value (KRAS Wild type) was 7.2 months, the “Progression-Free Survival Median, months” value (KRAS Wild type) was 2.1 months and the “Overall Survival Median, months” value (LN metastasis No) was 7.2 months. For the same substance, the “Progression-Free Survival Median, months” value (LN metastasis No) was 2.5 months, the “Overall Survival HR” value [4] was 1.06 and the “Progression-Free Survival HR” value [4] was 1.27. For the same substance, the “Overall Survival Median, months” value (LN metastasis Yes) was 8.3 months, the “Progression-Free Survival Median, months” value (LN metastasis Yes) was 3.0 months and the “Overall Survival Median, months” value (Liver metastasis No) was 8.7 months. For the same substance, the “Progression-Free Survival Median, months” value (Liver metastasis No) was 4.2 months, the “Overall Survival HR” value [5] was 0.57 and the “Progression-Free Survival HR” value [5] was 0.43. The “Overall Survival Median, months” value (Liver metastasis Yes) was 7.2 months, the “Progression-Free Survival Median, months” value (Liver metastasis Yes) was 2.3 months and the “Overall Survival Median, months” value (Lung metastasis No) was 6.3 months. For the same substance, the “Progression-Free Survival Median, months” value (Lung metastasis No) was 2.5 months, the “Overall Survival HR” value [6] was 1.44 and the “Progression-Free Survival HR” value [6] was 1.19. The “Overall Survival Median, months” value (Lung metastasis Yes) was 8.3 months, the “Progression-Free Survival Median, months” value (Lung metastasis Yes) was 2.9 months and the “Overall Survival Median, months” value (Number of metastases >2) was 8.1 months. For the same substance, the “Progression-Free Survival Median, months” value (Number of metastases >2) was 2.9 months, the “Overall Survival HR” value [7] was 1.63 and the “Progression-Free Survival HR” value [7] was 1.22.
